Results taken from the NIST ThermoML archive (doi:10.1021/acs.jced.6b00178).
Numbers after ± are expanded uncertainties.

Assay: xn = mol fraction of the nth substance listed
Details: 100 kPa, Liquid; for viscosity: Concentric cylinders viscometry; for mass density: Vibrating tube method

CC(=O)[O-].CCCCn1cc[n+](C)c1 [1-butyl-3-methylimidazolium acetate] + CCCC[n+]1ccn(C)c1.O=S(=O)([N-]S(=O)(=O)C(F)(F)F)C(F)(F)F
Details	mass density, x2 = 0 [kg/m3]	mass density, x2 = 0.25 [kg/m3]	mass density, x2 = 0.498 [kg/m3]	mass density, x2 = 0.749 [kg/m3]	viscosity, x2 = 0 [mPa·s]	viscosity, x2 = 0.25 [mPa·s]	viscosity, x2 = 0.498 [mPa·s]	viscosity, x2 = 0.749 [mPa·s]
283.15 K	1062.7 ± 1	1193.2 ± 1	1296.5 ± 1	1381.4 ± 0.9	1013.4 ± 64	577.38 ± 34	310.72 ± 17	175.1 ± 9.2
288.15 K	1059.4 ± 1	1189.4 ± 1	1292.2 ± 1	1376.8 ± 0.9	645.6 ± 39	385.58 ± 22	220.24 ± 12	129.87 ± 6.7
293.15 K	1056 ± 1	1185.6 ± 1	1288 ± 1	1372.3 ± 0.9	421.35 ± 24	265.43 ± 15	159.18 ± 8.4	101.85 ± 5.2
298.15 K	1052.8 ± 1	1181.9 ± 1	1283.8 ± 1	1367.8 ± 0.9	292.57 ± 16	189.58 ± 10	119.72 ± 6.2	76.32 ± 3.9
303.15 K	1049.7 ± 1	1178.3 ± 1	1279.7 ± 0.9	1363.3 ± 0.9	206.68 ± 11	138.72 ± 7.3	91.38 ± 4.7	60.27 ± 3
308.15 K	1046.6 ± 1	1174.7 ± 1	1275.7 ± 0.9	1358.8 ± 0.8	150.08 ± 7.9	104 ± 5.4	71.14 ± 3.6	48.44 ± 2.4
313.15 K	1043.5 ± 1	1171.1 ± 1	1271.6 ± 0.9	1354.3 ± 0.8	110.79 ± 5.8	79.57 ± 4.1	56.47 ± 2.9	40.34 ± 2
318.15 K	1040.5 ± 1	1167.5 ± 1	1267.5 ± 0.9	1349.9 ± 0.8	85.03 ± 4.4	62.28 ± 3.2	45.44 ± 2.3	32.7 ± 1.7
323.15 K	1037.5 ± 1	1163.9 ± 1	1263.5 ± 0.9	1345.4 ± 0.8	66.07 ± 3.4	49.57 ± 2.5	37.16 ± 1.9	27.36 ± 1.4
328.15 K	1034.5 ± 1	1160.3 ± 1	1259.4 ± 0.9	1341 ± 0.8	52.29 ± 2.7	40.09 ± 2	30.8 ± 1.6	23.18 ± 1.2
333.15 K	1031.5 ± 1	1156.8 ± 1	1255.4 ± 0.9	1336.6 ± 0.8	42.29 ± 2.2	33.14 ± 1.7	26.09 ± 1.3	20.11 ± 1
338.15 K	1028.5 ± 1	1153.2 ± 1	1251.4 ± 0.9	1332.3 ± 0.8	34.38 ± 1.8	27.38 ± 1.4	21.93 ± 1.1	17.14 ± 0.87
343.15 K	1025.6 ± 1	1149.7 ± 1	1247.5 ± 0.9	1327.9 ± 0.8	28.48 ± 1.5	23.05 ± 1.2	18.79 ± 0.95	14.96 ± 0.76
348.15 K	1022.6 ± 1	1146.1 ± 1	1243.5 ± 0.9	1323.6 ± 0.8	23.88 ± 1.2	19.63 ± 1	16.25 ± 0.82	13.13 ± 0.66
353.15 K	1019.7 ± 0.9	1142.6 ± 1	1239.6 ± 0.9	1319.4 ± 0.8	20.63 ± 1.1	17.21 ± 0.88	14.49 ± 0.73	11.89 ± 0.6
358.15 K	1016.7 ± 0.9	1139.1 ± 1	1235.7 ± 0.9	1315.1 ± 0.8	17.35 ± 0.89	14.64 ± 0.74	12.45 ± 0.63	10.35 ± 0.52
363.15 K	1013.9 ± 0.9	1135.6 ± 1	1231.8 ± 0.9	1310.9 ± 0.8	15 ± 0.77	12.81 ± 0.65	11.02 ± 0.56	9.272 ± 0.47
